From patent US11279733B2, “Peptide antibiotics” (priority 2017, dated 2022)
Like-named read-outs stand apart in the source and are kept apart here.

Tests used:
HepG2 cells = assay: Cytotoxicity, resazurin assay, HepG2
In short: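 4000 cells/well, 24 h attach (37 °C, 5% CO2); compound 24 h; 5 μM resazurin 2 h, 37 °C; fluorescence ex/em 560/590. CC50 by curve fit.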

Neisseria gonorrhoeae = assay: MIC determination, Neisseria gonorrhoeae; format: cell-based
In short: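 Mid-log cultures grown in Mueller Hinton broth at 37° C were tested by 2-fold broth microdilution at 5×10^5 CFU/mL final. Compounds were dissolved in water and tested over a final range of 32 to 0.015 μg/mL.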

[1] = test system: Human kidney 2 (HK2) cells; assay: Cytotoxicity, HK2 LDH assay
In short: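 HK2 cells were seeded at 2000 per well in DMEM/F12 with 10% FBS and left to attach for 24 h at 37 °C, 5% CO2. They were then exposed for 24 h to 3-fold peptide dilutions starting from 600 μM solutions in quadruplicate. LDH release was read at 450 nm, and CC50 was fitted from dose-response curves.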

Substance: polymyxin B sulfate [PolymyxinB, reference compound]
- CC50 (HepG2 cells; read-out: Hep G2-CC50, HepG2, 24 h): > 300 µM
- CC50 (HepG2 cells; read-out: Hep G2-CC50, HepG2 cells): > 300 µM
- CC50 (HepG2 cells; read-out: Hep G2-CC50, Table 5, HepG2 cells): > 300 µM
- CC50 (HepG2 cells; read-out: Hep G2-CC50, Table 6, HepG2 cells): > 300 µM
- CC50 (HepG2 cells; read-out: Hep G2 CC50, HepG2 cells): > 300 µM
- MIC N. gonorrhoeae F89 (Neisseria gonorrhoeae; strain F89): 9.38 µg/mL
- MIC N. gonorrhoeae FA19 ATCC BAA-1838 (Neisseria gonorrhoeae; strain FA19 ATCC BAA-1838): 12.5 µg/mL
- MIC N. gonorrhoeae FA1090 A25 ATCC 700825 (Neisseria gonorrhoeae; strain FA1090 A25 ATCC 700825): 10.42 µg/mL
- MIC N. gonorrhoeae H041 (Neisseria gonorrhoeae; strain H041): 8.33 µg/mL
- CC50 ([1]; read-out: HK2 (LDH) CC50, HK2 cells, LDH): 125 µM
- CC50 ([1]; read-out: HK2 (LDH)-CC50, HK2, LDH, 24 h): 125 µM
- CC50 ([1]; read-out: HK2 (LDH)-CC50, HK2 cells, LDH): 125 µM
- CC50 ([1]; read-out: HK2 (LDH)-CC50, Table 5, HK2 cells, LDH): 125 µM
- CC50 ([1]; read-out: HK2 (LDH)-CC50, Table 6, HK2 cells, LDH): 125 µM
